# From patent US9662314B2, “Compounds and methods for the treatment of muscular disease, and related screening methods” (Tufts Medical Center, Inc., priority 2011, dated 2017)
# Legend:
# [1] = tested on: glucose transporter 1 (GLUT-1); conditions: Jeong et al. 2011; cited from earlier work
# [2] = tested on: vascular endothelial growth factor (VEGF); conditions: Jeong et al. 2011; cited from earlier work
# [3] = tested on: mammary carcinoma; conditions: intraperitoneal administration, murine mammary carcinoma (Nakajima et al., 2007); cited from earlier work
# [4] = tested on: Smooth mutant Drosophila flies (sm homozygotes, that develop muscle dystrophy); experiment: Survival of adult smooth mutant Drosophila flies treated with ascochlorin (FIG. 1); format: in vivo; conditions: adult sm homozygote flies on paper discs, 1 mM solution in 9% sucrose, 10% ethanol, throughout lifespan, vs vehicle alone
# Procedure: Smooth mutant Drosophila flies (sm homozygotes, that develop muscle dystrophy) were maintained on paper discs soaked either with ascochlorin (Santa Cruz Biotechnology, 1 mM solution in 9% sucrose, 10% ethanol), or with vehicle alone. The treatment was maintained throughout the lifespan of the organism. Unaffected control siblings (sm heterozygotes) were maintained on vehicle. The number of dead flies was recorded daily, and percent survival was plotted as a function of time in days.
# [5] = literature statement; cited from earlier work
# [6] = tested on: human osteosarcoma cells (U2OS); conditions: proteome analysis (Kang et al. 2006); cited from earlier work
# [7] = tested on: BIN1; conditions: U2OS cells, third most up-regulated protein (Kang et al. 2006); cited from earlier work
# [8] = tested on: splicing factor hnRNP L; conditions: U2OS cells, most up-regulated protein (Kang et al. 2006); cited from earlier work
SMILES,expression of GLUT-1 [1],expression of VEGF [2],cancer growth [3],survival [3],survival time [4],toxicity [5],increase in the levels of three proteins [6] [fold],BIN1 up-regulation [7] [×],hnRNP L up-regulation [8] [×]
"COc1c(Cl)c(C)c(C=O)c(O)c1C/C=C(C)/C=C/[C@@]1(C)[C@H](C)CCC(=O)[C@@H]1C [MAC, 4-O-methylascochlorin]",increases the expression,increases the expression,,,,,,,
CC(/C=C/[C@@]1(C)[C@H](C)CCC(=O)[C@@H]1C)=C\Cc1c(O)c(Cl)c(C)c(C=O)c1O [ascochlorin],,,significantly suppressed cancer growth,prolonged survival,prolonged survival time,non-toxic,≥ 10,10,12
C/C(=C\Cc1c(O)c(Cl)c(C)c(C=O)c1O)CC/C=C(\C)[C@@H]1CC(=O)C(C)(C)O1 [ascofuranone],,,,,,non-toxic,,,
